Results reported in BindingDB's records for doi:10.7270/Q2TX3CTT (Broad Institute, 2010).

Biological target: Glycogen synthase kinase-3 beta (Homo sapiens, UniProt P49841)
Assay: concentration-response blocking of human GSK3B – biochemical, luminescence, cell-free homogeneous, retest, dose response (AID 434954)

Glycogen synthase kinase-3 beta, sequence (P49841 whole entry): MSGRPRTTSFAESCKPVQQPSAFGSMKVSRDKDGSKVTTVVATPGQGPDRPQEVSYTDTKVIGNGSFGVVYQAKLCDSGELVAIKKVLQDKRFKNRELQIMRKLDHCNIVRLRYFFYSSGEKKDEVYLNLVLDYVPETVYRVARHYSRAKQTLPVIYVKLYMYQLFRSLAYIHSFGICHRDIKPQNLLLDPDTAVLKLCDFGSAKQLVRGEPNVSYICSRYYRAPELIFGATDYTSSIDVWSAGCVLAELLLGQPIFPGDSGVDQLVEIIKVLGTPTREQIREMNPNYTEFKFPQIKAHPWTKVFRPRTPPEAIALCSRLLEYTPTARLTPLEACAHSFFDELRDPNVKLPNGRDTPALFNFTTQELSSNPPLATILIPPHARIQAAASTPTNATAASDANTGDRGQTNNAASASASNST

Row | Compound | EC50 [µM]
1 | COc1cccc(C2C3=C(CC(C)(C)CC3=O)N=C(C)C2C#N)c1 (stereo not drawn) [4-(3-methoxyphenyl)-2,7,7-trimethyl-5-oxo-1,4,5,6,7,8-hexahydro-3-quinolinecarbonitrile] | > 300
2 | CC1=C(C#N)C(=O)NC(=O)C1=NNc1ccc(S(N)(=O)=O)cc1 [4-[(2Z)-2-(5-cyano-4-methyl-2,6-dioxopyridin-3-ylidene)hydrazinyl]benzenesulfonamide] | 0.917
3 | Fc1ccc(Nc2nc(-c3ccncc3)nc3ccccc23)cc1 [(4-Fluoro-phenyl)-(2-pyridin-4-yl-quinazolin-4-yl)-amine] | > 300
4 | Cc1cccc(C(=O)Nc2ccc(O)c3c(=O)cc(-c4ccccc4Cl)oc23)c1 | > 300
5 | CC(c1ccccc1)n1c(CCCO)nc2ccccc21 (stereo not drawn) [3-[1-(1-Phenyl-ethyl)-1H-benzoimidazol-2-yl]-propan-1-ol] | > 300
6 | Cc1cc(C(=O)c2ccccc2)c(NC(=O)CN2CCOCC2)s1 [N-[5-methyl-3-(phenylcarbonyl)thiophen-2-yl]-2-morpholin-4-yl-ethanamide] | > 300
7 | CC(CC(=O)N1CCN(c2cccc(Cl)c2)CC1)S(=O)(=O)c1ccc2c(c1)NC(=O)CO2 (stereo not drawn) [6-[4-[4-(3-chlorophenyl)piperazin-1-yl]-4-oxobutan-2-yl]sulfonyl-4H-1,4-benzoxazin-3-one] | > 300
8 | Nc1nonc1-n1nnc(C(=O)NN=Cc2ccccn2)c1CNc1ccccc1 [1-(4-amino-1,2,5-oxadiazol-3-yl)-5-(anilinomethyl)-N-(2-pyridinylmethylideneamino)-4-triazolecarboxamide] | > 300
9 | Cn1c(SCC(=O)NC2CCCCC2)nnc1-c1ccccn1 | > 300
10 | COc1ccc2nc3c(cc2c1)c(NC(=O)CC(C)C)nn3CC(C)C [N-[6-methoxy-1-(2-methylpropyl)-3-pyrazolo[3,4-b]quinolinyl]-3-methylbutanamide] | > 300
11 | c1cncc(-c2nc(NCc3cccs3)c3ccccc3n2)c1 | > 300
12 | CCCC1=Nc2ncnn2C(c2cccs2)C1C(=O)OCC (stereo not drawn) [5-propyl-7-thiophen-2-yl-1,7-dihydro-[1,2,4]triazolo[1,5-a]pyrimidine-6-carboxylic acid ethyl ester] | 23.2
13 | O=C1Nc2cc(C(=O)NCCCN3CCCC3)ccc2S/C1=C/c1ccccc1F [(2E)-2-[(2-fluorophenyl)methylidene]-3-oxo-N-(3-pyrrolidin-1-ylpropyl)-4H-1,4-benzothiazine-6-carboxamide] | 6.99
14 | CCNc1nc(SCC(N)=O)nc2sc3c(c12)CCN(C)C3 [2-[[4-(ethylamino)-7-methyl-6,8-dihydro-5H-pyrido[4,5]thieno[1,2-c]pyrimidin-2-yl]sulfanyl]acetamide] | 49.4
15 | COc1cc(C(=O)OCC(=O)NC(N)=O)cc(CN2C(=O)c3ccccc3C2=O)c1OC | > 300
16 | CCc1ccc(CNC(=O)C2CCC(=O)N(CCc3ccc(Cl)cc3)C2)nc1 (stereo not drawn) [1-[2-(4-chlorophenyl)ethyl]-N-[(5-ethyl-2-pyridinyl)methyl]-6-oxo-3-piperidinecarboxamide] | > 300
17 | NC(=O)COC(=O)c1ccc(-c2ccc(O)cc2)cc1 | > 300
18 | Cc1cc(C)c(C#N)c(SCC(=O)c2ccc(Cl)cc2Cl)n1 [2-[2-(2,4-dichlorophenyl)-2-oxidanylidene-ethyl]sulfanyl-4,6-dimethyl-pyridine-3-carbonitrile] | > 300
19 | Cc1ccc(Sc2ccc(CN=O)cc2[N+](=O)[O-])cc1 [4-[(4-methylphenyl)thio]-3-nitrobenzaldehyde oxime] | 51.7
20 | Cc1ccc(NC(=O)Nc2cc(-c3ccccc3)nn2C)cc1Cl [N-(3-chloro-4-methylphenyl)-N'-(1-methyl-3-phenyl-1H-pyrazol-5-yl)urea] | > 300

Row | Compound | EC50 [µM]
21 | COc1ccc(/C=C2\Sc3ccc(C(=O)NCCN4CCCCCC4)cc3N(C)C2=O)cc1 [(2Z)-N-[2-(azepan-1-yl)ethyl]-2-[(4-methoxyphenyl)methylidene]-4-methyl-3-oxo-1,4-benzothiazine-6-carboxamide] | 43.3
22 | N#Cc1c(Nc2ccccc2)sc(C(=O)c2ccccc2)c1N [4-azanyl-2-phenylazanyl-5-(phenylcarbonyl)thiophene-3-carbonitrile] | 52.9
23 | COC(=O)c1ccc(NC(=O)CCN2CCN(Cc3ccccc3)CC2)cc1 [4-[3-(4-Benzyl-piperazin-1-yl)-propionylamino]-benzoic acid methyl ester] | > 300
24 | CC1=C(C(=O)Nc2ccccc2F)C(c2ccsc2)C2C(=O)CC(C)(C)CC2=N1 (stereo not drawn) [N-(2-fluorophenyl)-2,7,7-trimethyl-5-oxo-4-(3-thiophenyl)-1,4,6,8-tetrahydroquinoline-3-carboxamide] | > 300
25 | Nc1nc(Nc2ccccc2F)sc1C(=O)c1ccccc1 [[4-amino-2-(2-fluoroanilino)-1,3-thiazol-5-yl]-phenylmethanone] | 0.622
26 | CC(C)Nc1nc(N)c(C(=O)C23CC4CC(CC(C4)C2)C3)s1 [1-adamantyl-[4-azanyl-2-(propan-2-ylamino)-1,3-thiazol-5-yl]methanone] | 23.5
27 | Nc1ncc(-c2ccccc2)c(-c2ccc(O)cc2O)n1 | 7.69
28 | CC(=O)c1ccc(NC(=O)CN2C(=O)CCC2=O)cc1 [N-(4-acetylphenyl)-2-(2,5-dioxo-1-pyrrolidinyl)acetamide] | > 300
29 | COC(=O)CCC(=O)Oc1ccc(OC(=O)CCC(=O)OC)cc1 [4-O-[4-(4-methoxy-4-oxobutanoyl)oxyphenyl] 1-O-methyl butanedioate] | > 300
30 | COc1ccc(C2C(C(C)=O)C(=O)C(=O)N2c2nccs2)c(OC)c1 (stereo not drawn) [3-acetyl-2-(2,4-dimethoxyphenyl)-4-hydroxy-1-(1,3-thiazol-2-yl)-2H-pyrrol-5-one] | > 300
31 | O=C1c2ccccc2NC(c2c[nH]nc2-c2ccccc2)N1O (stereo not drawn) | > 300
32 | O=C(O)c1cc(-c2ccc(C=NNC(=S)Nc3ccccc3)o2)ccc1Cl [5-[5-[[[anilino(sulfanylidene)methyl]hydrazinylidene]methyl]-2-furanyl]-2-chlorobenzoic acid] | > 300
33 | COCCNc1nc(N)c([N+](=O)[O-])c(NC2CCCCC2)n1 | 5.35
34 | CCNc1nc(N)nc(Oc2ccc(OCCOc3ccc(Cl)cc3Cl)nn2)n1 [6-[6-[2-(2,4-dichlorophenoxy)ethoxy]pyridazin-3-yl]oxy-2-N-ethyl-1,3,5-triazine-2,4-diamine] | > 300
35 | CC(C)Nc1nc(-c2cccnc2)nc(-c2ccccc2)c1C#N [4-phenyl-6-(propan-2-ylamino)-2-pyridin-3-yl-pyrimidine-5-carbonitrile] | > 300
36 | CN1CCc2c(sc3c2C(=O)NC(c2cccs2)N3)C1 (stereo not drawn) | > 300
37 | CN(C)c1nc(N)c([N+](=O)[O-])c(NCCO)n1 | > 300
38 | CCCCc1cc(=O)oc2cc(O)cc(O)c12 [4-butyl-5,7-dihydroxy-2H-chromen-2-one] | 15.2
39 | COc1cccc2c1cc1c(=O)n(CC(=O)NCc3ccccn3)nc(C)n12 [2-(9-methoxy-4-methyl-1-oxo-[1,2,4]triazino[4,5-a]indol-2-yl)-N-(pyridin-2-ylmethyl)acetamide] | > 300
40 | CCn1c(C=CN(C(C)=O)c2ccccc2)[n+](CC)c2cc(Cl)ccc21 [N-[(E)-2-(5-chloro-1,3-diethylbenzimidazol-1-ium-2-yl)ethenyl]-N-phenylacetamide;iodide] | > 300

Second part, the molecule after the results:

Row | EC50 [µM] | Compound
41 | 10.9 | Cc1c(C(=O)OCCOc2ccccc2)[nH]c2c1C(=O)CCC2 [MLS000090901]
42 | > 300 | CCOc1ccc(/C=C2\CCCc3c2nc2ccccc2c3C(=O)O)cc1OC [SMR000688807]
43 | > 300 | COc1ccc(CN=Nc2ccc([N+](=O)[O-])cc2)cc1O [MLS001198430]
44 | 45.7 | COC(=O)c1nnn(-c2nonc2N)c1CSc1nnc(C)s1 [MLS000728193]
45 | 14.5 | Cc1ccc(CSc2nnc(-c3ccncc3)o2)c(C)c1 [SMR000280552]
46 | > 300 | C=CCN=C(NC#N)SCC(=O)NC(C)(C)C [MLS000078466]
47 | > 300 | Cc1ccc2c(CN3CCN(Cc4ccccc4)CC3)cc(=O)oc2c1C [SMR000543581]
48 | > 300 | Cn1c(=O)c2[nH]c(CN3CCN(Cc4ccccc4)CC3)nc2n(C)c1=O [SMR000120891]
49 | > 300 | O=[N+]([O-])c1cc(Cl)ccc1N1CCCC1 [SMR000284754]
50 | 4.13 | CCCCC(=O)Nc1ncc(Br)s1 [MLS000066333]
51 | > 300 | COc1ccc2c(c1)cc1c(=O)n(CC(=O)NCCCN3CCOCC3)nc(C)n12 [SMR000624522]
52 | > 300 | CCOC(=O)c1cnc2ccccc2c1Nc1ccc(C(=O)O)cc1 [SMR000299060]
53 | > 300 | CN1CCN(C(=O)CCS(=O)(=O)c2cc3c(cc2Cl)NC(=O)CO3)CC1 [SMR000627499]
54 | > 300 | Nc1nc(O)c(N=Nc2ccc(S(N)(=O)=O)cc2)c(=O)[nH]1 [SMR000543013]
55 | > 300 | CC1=NN(C(=O)CCc2ccc3c(c2)OCO3)C(O)(C(F)(F)F)C1 (stereo not drawn) [SMR000289779]
56 | > 300 | COc1cc(NC(=O)COC(=O)CCc2cc(OC)c(OC)c(OC)c2)cc(OC)c1 [SMR000349752]
57 | > 300 | COCCN(CCOC)Cc1c(O)ccc2c1O/C(=C\c1ccco1)C2=O [SMR000544009]
58 | > 300 | CCOc1ccc2c(c1)-c1c(ssc1=S)C(C)(C)N2 [SMR000116364]
59 | > 300 | O=C1Nc2ccccc2/C1=N/c1cccc([N+](=O)[O-])c1 [MLS001194693]
60 | > 300 | COc1ccc2oc3cc(C)[n+]([O-])c(-c4ccc(Br)cc4)c3c2c1 [MLS000588179]
61 | 87.5 | Nc1nc(NCCCN2CCOCC2)nc(Nc2cccc(F)c2)c1[N+](=O)[O-] [SMR000436037]
62 | > 300 | CCCN1CCN(CCCNC(=O)c2ccc3c(c2)NC(=O)c2ccccc2S3)CC1 [MLS001110989]
63 | 26.2 | Cc1ccc(C(=O)O/N=C(\N)c2ccccn2)c(Cl)c1 [MLS001206211]
64 | > 300 | Cc1cc(C)c2nc(N(CCN(C)C)C(=O)c3ccc(S(=O)(=O)N(C)CC4CCCO4)cc3)sc2c1 (stereo not drawn) [MLS001239556]
65 | 11.5 | Cc1ccc(-c2n[nH]c(=S)n2N=Cc2ccncc2)cc1 [SMR000269897]
66 | > 300 | O=C1CCCc2oc3ccc(O)cc3c21 [SMR000125008]
67 | > 300 | O=C(O)c1cccc(CSc2nnc(-c3cccnc3)o2)c1 [SMR000503811]
68 | > 300 | CC[n+]1c(/C=C/N(C)c2ccccc2)oc2ccc(Cl)cc21 [SMR000184374]
